Measured values taken from patent publication EP4574175A1, “PRODRUG FOR ANTI-AGING RELATED DISEASES AND USE METHOD THEREFOR” (BEIJING SUNCELL BIO-MEDICAL CO., LTD., priority 2022, dated 2024).

Tests used:
platelets = test: In vivo platelet toxicity test; set-up: species or system C57 mice
Experimental: (§1) All drugs were mixed in 85% physiological saline, 5% DMSO (Sigma, D8418) and 10% Solutol HS 15 (Sigma, 42966), and administered to mice by intraperitoneal (i.p.) injection. To treat the bleomycin-injured young mice, A13 (2 mg/kg), A13bGa1 (5 mg/kg), or an empty vehicle control was administered three consecutive days per week for four weeks. A1331852 (abbreviated as A13) was purchased from MCE.
A single administration of A13 or A13bG was performed. Female 5-6 week old C57 mice were treated with a single intraperitoneal injection. A13 and A13bG were administered in three different dose groups of 2, 5, and 20 mg/kg. Approximately 50 µl of blood was collected from each mouse at different time points into the EDTA tubes (RAM Scientific) by means of inner canthal blood extraction, and analyzed using a haematology analyzer for a blood routine examination and a platelet counting. Multiple administrations of A13 or A13bG were performed. Female 5-6 week old C57 mice were treated with multiple intraperitoneal injections. A13 and A13bG were administered in three different dose groups of 2, 5 and 20 mg/kg, three consecutive days per week, followed by a 4-day withdrawal for 3 weeks. The time points of administration were in the afternoon of days 0, 1, 2, 7, 8, 9, 14, 15, and 16, and the time points of blood collection and testing were in the morning of days 1, 3, 5, 8, 10, 12, 15, 17, and 19, respectively.
For a blood routine examination, 50 µl of fresh blood was collected from each mouse and immediately mixed with EDTA. Blood samples were analyzed by Celltac Alpha MEK-6400 series haematology analyzer (Nihon Kohden, MEK-6400). Data were expressed as the number of different blood cells or platelets per µl of blood. For the serum biochemical analysis, the blood samples were collected, coagulated for 2 hours at room temperature or overnight at 4°C, and then centrifuged (1000 g, 10 minutes) to obtain serum. A 200 µl of serum was aliquoted and analyzed for alanine aminotransferase (ALT), aspartate aminotransferase (AST), uric acid (UA), and creatinine (CREA) by a chemistry analyzer (Mindray, BS-350E).

[1] = test system: mouse model of Bleomycin-induced pulmonary fibrosis; test: Bleomycin-induced pulmonary fibrosis mouse model; assay type: in vivo, C57 mice; settings: A13 2 mg/kg, A13bGa1 5 mg/kg i.p.
Experimental: as §1
Bleomycin was purchased from Selleck. […]. Drug treatment was initiated four days after modelling, and the drug was administered three consecutive days per week for four consecutive weeks, after which the mice were executed for material collection.
All animals (including those found dead, dying, and euthanised) were autopsied, and the lung tissues were preserved. The lungs were separated, the fat and other tissues were removed, the surface fluid was absorbed using a filter paper, and the whole lungs were weighed (those found dead, dying, and euthanised) for calculation of the lung weight index. The right lung and bronchiole were fixed in 10% neutral buffered formalin solution, embedded in paraffin, sectioned, prepared into slices, and stained with HE for a histopathological and morphological observation of the lung. The degree of the lesions such as the inflammatory cell infiltration in the lung tissue were graded according to a 4-grade classification (slight, mild, moderate, severe) using a standard terminology for diagnosis and classification. The left lung tissue was clipped and stored temporarily below -60°C. Lung weight index(%) = lung weight/body weight × 100%. [formula]
Masson trichrome stain kit (Solarbio, G1340) was used to detect fibrosis in the lung tissue. The formalin-fixed, and paraffin-embedded lung sections were dewaxed with xylene, and then rehydrated with 100% alcohol, 95% alcohol and distilled water. The sections were then stained according to the manufacturer's instructions. Afterwards, the sections were rapidly dehydrated with 95% alcohol and 100% alcohol, cleaned with xylene and covered with the coverslips. […]

[2] = Hepatic microsomal metabolic stability

Cc1c(-c2ccc(N3CCc4cccc(C(=O)Nc5nc6ccccc6s5)c4C3)nc2C(=O)OCc2ccc(O[C@@H]3O[C@H](CO)[C@H](O)[C@H](O)[C@H]3O)c([N+](=O)[O-])c2)cnn1CC12CC3CC(CC(C3)C1)C2 [A13bGa1]
toxic effects on the platelets (platelets; multiple rounds i.p., 3 consecutive days per week for 3 weeks, 2, 5 and 20 mg/kg): significantly reduced
platelet-destroying effect (platelets; single intraperitoneal administration, 20 mg/kg): strong platelet-destroying effect only at the higher dose of 20 mg/kg
toxicity to the platelets (platelets; single intraperitoneal administration, 2, 5 and 20 mg/kg): significantly less toxic to the platelets than the parent compound A13
pathological manifestations of the pulmonary fibrosis (Masson staining) [1]: improved
lung index ([1]; 3 consecutive days per week for 4 weeks): recovered to the normal level
inflammation and consolidation of the mouse lungs (pathological sections) ([1]; HE staining): significant improvement
The hepatic extraction ratio (E) ([2]; Rat): 0.34
CLint scaled at 1 µM ([2]; rat, microsomes): 18.7 mL/min/kg
microsomal CLint at 1 µM ([2]; rat, microsomes): 15.8 µL/min/mg
